# Read-outs that look alike come from different tables or passages of the source.
# Molecular target: T1, K-RasG12C (1-169) (Homo sapiens, UniProt P01116, G12C)
# T1 construct: Un-tagged recombinant K-Ras G12C (1-169) at 4 μM in Buffer A; hexahistidine (cleaved yes); made in house; host or cells: Escherichia coli BL21 (DE)
# Experiment: Mass spectrometric screen for extent of covalent labeling
# Type: binding
# Details: for percent covalent labeling at 10 µM: 10 micromolar; for Labeling % (10 micM) 24h: 10 micM compound, (plate) or (single) measurement
# Procedure: Un-tagged recombinant K-Ras G12C (1-169) at 4 μM in Buffer A was reacted with inhibitors at 200 μM or 10 μM (2% DMSO final). At 2, 6, and 24 hrs, 10 μL aliquots were removed and the reactions were stopped by addition of 1 μL 2% formic acid. The extent of modification was determined by mass spectrometry.
# [1] = 2 h, 2 hrs, read-out: Percent reduction in activity of compound at 10 micromolar relative to control (no compound), 2 hrs
# [2] = 6 h, 6 hrs, read-out: Percent reduction in activity of compound at 10 micromolar relative to control (no compound), 6 hrs
# [3] = 24 h, 24 hrs, read-out: Percent reduction in activity of compound at 10 micromolar relative to control (no compound), 24 hrs
Structure (SMILES),percent covalent labeling at 10 µM [1] [%],percent covalent labeling at 10 µM [2] [%],percent covalent labeling at 10 µM [3] [%],Labeling % (10 micM) 24h,Labeling % (10 micM) 24h (Table 5)
O=C(NC1CCN(C(=O)CNc2cc(Cl)c(Cl)cc2I)CC1)C1CO1 (centres unmarked) [JO-02-152],≤ 5,≤ 5,20 to 40,,
C=CC(=O)N1CCN(C(=O)CNc2cc(Cl)c(Cl)cc2I)CC1 [JO-02-155],≤ 5,5 to 20,40 to 60,,
C=CC(=O)N1CC[C@@H](NC(=O)CNc2cc(Cl)c(Cl)cc2I)C1 [JO-02-157A (R)],≤ 5,≤ 5,≤ 5,,
C=CC(=O)N1CC[C@H](NC(=O)CNc2cc(Cl)c(Cl)cc2I)C1 [JO-02-157B (S)],≤ 5,≤ 5,5 to 20,,
C=CC(=O)N1CCN(C(=O)COc2ccc(Cl)cc2Cl)CC1 [JO-02-172],,,,+ (plate) (+ <=5%),+ (plate) (+ <=5%)
N#CC1(NC(=O)C2CCN(C(=O)COc3ccc(Cl)cc3Cl)CC2)CC1 [Ras-001],≤ 5,≤ 5,≤ 5,,
C=CC(=O)NC1CCN(C(=O)COc2c(Cl)cc(Cl)cc2Cl)CC1 [Ras-002],≤ 5,≤ 5,≤ 5,,
C=CC(=O)NC1CCN(C(=O)Cn2cnc3ccccc32)CC1 [Ras-003],≤ 5,≤ 5,≤ 5,,
C=CC(=O)NC1CCN(C(=O)Cn2ncc3ccccc32)CC1 [Ras-004],≤ 5,≤ 5,≤ 5,,
C=CC(=O)NC1CCN(C(=O)CCn2cnc3ccccc32)CC1 [Ras-005],≤ 5,≤ 5,≤ 5,,
C=CC(=O)NC1CCN(C(=O)CCn2ncc3ccccc32)CC1 [Ras-006],≤ 5,≤ 5,≤ 5,,
CN(C)C/C=C/C(=O)NC1CCN(C(=O)COc2ccc(Cl)cc2Cl)CC1 [Ras-007],≤ 5,≤ 5,≤ 5,,
C=CS(=O)(=O)NC1CCN(C(=O)COc2c(Cl)cc(Cl)cc2Cl)CC1 [Ras-008],≤ 5,≤ 5,≤ 5,,
C=CS(=O)(=O)NC1CCN(C(=O)Cn2ncc3ccccc32)CC1 [Ras-009],≤ 5,≤ 5,≤ 5,,
C=CS(=O)(=O)NC1CCN(C(=O)CCn2ncc3ccccc32)CC1 [Ras-010],≤ 5,≤ 5,≤ 5,,
C=CS(=O)(=O)NC1CCN(C(=O)COc2cc(C(F)(F)F)c(Cl)cc2Cl)CC1 [Ras-011],≤ 5,≤ 5,20 to 40,,
C=CS(=O)(=O)NC1CCN(C(=O)CCn2cnc3ccccc32)CC1 [Ras-012],≤ 5,≤ 5,≤ 5,,
C=CS(=O)(=O)NC1CCN(C(=O)COc2cc(C#N)c(Cl)cc2Cl)CC1 [Ras-013],≤ 5,≤ 5,5 to 20,,
C=CS(=O)(=O)NC1CCN(C(=O)Cn2cnc3ccccc32)CC1 [Ras-014],≤ 5,≤ 5,≤ 5,,
C=CS(=O)(=O)NC1CCN(C(=O)COc2ccc(Cl)cc2Br)CC1 [Ras-015],≤ 5,≤ 5,20 to 40,,
C=CS(=O)(=O)NC1CCN(C(=O)COc2ccc(Cl)cc2NC(C)=O)CC1 [Ras-016],≤ 5,≤ 5,≤ 5,,

# From US11008334B2, “Compositions and methods for treating cancer” (The Regents of the University of California, priority 2012, dated 2021)
